Data published in patent US4230845A, “Polyhydroxy-alkyl-3,5-disubstituted-2,4,6-triiodocarbanilates” (Mallinckrodt, Inc., priority 1978, dated 1980).
In brackets after ≈: the same amount, converted by molar mass. Read-outs that look alike come from different tables or passages of the source.

Legend:
[1] = Acute intravenous toxicity studies in mice; assay type: in vivo, Swiss Albino mice (Charles River); conditions: intravenous (lateral tail vein), iodine concentration 28.2%, pH 7.0-7.2, approx. 1 ml./min, seven day observation, Litchfield and Wilcoxon
Procedure: (§1) Toxicity evaluations in accordance with three different techniques were carried out on aqueous solutions of the compounds of Examples I and II. The techniques utilized are described below.
Swiss Albino mice (Charles River) were dosed in the lateral tail vein with aqueous solutions of the above-noted iodinated compounds having an iodine concentration of 28.2% with a pH of 7.0-7.2. The solutions were injected at the rate of approximately 1 ml./min. […] The LD50 values were calculated by the method of Litchfield and Wilcoxon (J. of Pharmac. and Exptl. Therap. 96: 99-113, 1949).

[2] = Intracerebral toxicity in mice; assay type: in vivo, Swiss Albino mice (Charles River); conditions: aqueous solution, seven day observation, Litchfield and Wilcoxon
Procedure: as §1
Swiss Albino mice (Charles River) were used. Fixed volumes of aqueous solutions of the iodinated compounds were injected intracerebrally via a 27 gauge needle (1/4 inch in length) according to the method of Haley et al. (Br. J. of Pharmac. 12:12-15, 1957). The animals were observed immediately following injections and daily throughout a seven day observation period. The LD50 values were calculated by the method of Litchfield and Wilcoxon (J. of Pharmac. and Exptl. Therap. 96:99-113, 1949).

[3] = Intracisternal toxicity in rats; assay type: in vivo, Sprangue-Dawley (Carworth) rats; conditions: aqueous solution, two day observation, Litchfield and Wilcoxon
Procedure: as §1
Sprangue-Dawley (Carworth) rats were used. The method used was a variation of the procedure outlined by Melartin et al. (Invest. Rad. 5: 13-21, 1970). After dosing, the animals were housed individually and observed for immediate reactions and periodically for a two day observation period. The LD50 values were calculated according to the method of Litchfield and Wilcoxon (J. of Pharmac. and Exptl. Therap. 96:99-115, 1949).

[4] = Intravenous pyelographic studies in dogs; assay type: in vivo; conditions: dog
Procedure: The compounds of Examples I and II were employed in intravenous pyelographic studies carried out in dogs. At a dosage of 1000 mg.

[5] = Water solubility; assay type: physicochemical

| Compound | LD50 Value, I.V. (Mice) [1] | LD50 Value, Intracerebral (Mice) [2] | LD50 Value, Intracisternal (Rats) [3] | Pyelographic visualization ([4]; 1000 mg. I/kg., five minutes after injection) | solubility at 730 h ([5]; after standing for one month) | solubility ([5]; initial determination, read-out: Water solubility (initially)) | Pyelographic visualization ([4]; 155 mg. I/kg., five minutes after injection) | Pyelographic visualization ([4]; 155 mg. I/kg., one minute after injection) | solubility ([5]; read-out: Water solubility) |
| --- | --- | --- | --- | --- | --- | --- | --- | --- | --- |
| CNC(=O)c1c(I)c(NC(=O)OCC(=O)[C@@H](O)[C@H](O)[C@@H](O)CO)c(I)c(C(=O)N(C)C)c1I [Example I, 1-[N-(2,4,6-triiodo-3-N,N-dimethylcarbamyl-5-N-methylcarbamyl)carbanilyl]-L-sorbose] | 3,027 mg. I/kg. body wt. | 1,450 mg. I/kg. body wt. | 13 mg. I/kg. body wt. | very good contrast of the kidneys, collecting pelvises and urinary bladder | 200 mg/mL (≈ 248 mM) | 1000 mg/mL (≈ 1240 mM) | – | – | – |
| CNC(=O)c1c(I)c(NC(=O)OC[C@@H](O)[C@H](O)[C@H](O)[C@@H](O)C=O)c(I)c(N(C)C(C)=O)c1I [Example II, 6-[2,4,6-Triiodo-3-(N-methylacetamido)-5-(N-methylcarbamyl)carbanilyl]-D-galactose] | 2,300 mg. I/kg. body wt. | 222 mg. I/kg. body wt. | < 20 mg. I/kg. body wt. | – | – | – | a better shadow of the kidneys was seen together with partial visualization of the ureters | visualization of the kidneys | ≥ 1000 mg/mL |
